The supplement of paper PMC11451515

Test system: P12-Ichikawa
Experiment: cell viability relative to DMSO control; higher = less cytotoxic
Settings: 48 h
How it was run: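 Viability is expressed as a percentage of DMSO wells within each plate, and cell-free wells serve as background. Seeding densities in the 1536-well plates (5 μl) were 500 cells/well for NOMO1 or SEM leukemia cells and 1000 cells/well for P12-Ichikawa. Each line was adapted for at least four passages in each medium. Library compounds in DMSO were pin-dosed at 47 μM to 0.79 nM (11 points, threefold), and CellTiter-Glo One luminescence was read after 48 h at 37°C.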

[1] = HPLM + 10% dialyzed FBS, 0.000781 µM
[2] = HPLM + 10% dialyzed FBS, 0.00234 µM
[3] = HPLM + 10% dialyzed FBS, 0.00702 µM
[4] = HPLM + 10% dialyzed FBS, 0.0211 µM
[5] = HPLM + 10% dialyzed FBS, 0.0632 µM
[6] = HPLM + 10% dialyzed FBS, 0.19 µM
[7] = HPLM + 10% dialyzed FBS, 0.569 µM
[8] = HPLM + 10% dialyzed FBS, 1.71 µM
[9] = HPLM + 10% dialyzed FBS, 5.12 µM
[10] = HPLM + 10% dialyzed FBS, 15.4 µM
[11] = HPLM + 10% dialyzed FBS, 46.1 µM
[12] = RPMI 5 mM glucose + 10% FBS, 0.000781 µM
[13] = RPMI 5 mM glucose + 10% FBS, 0.00234 µM
[14] = RPMI 5 mM glucose + 10% FBS, 0.00702 µM
[15] = RPMI 5 mM glucose + 10% FBS, 0.0211 µM
[16] = RPMI 5 mM glucose + 10% FBS, 0.0632 µM
[17] = RPMI 5 mM glucose + 10% FBS, 0.19 µM
[18] = RPMI 5 mM glucose + 10% FBS, 0.569 µM
[19] = RPMI 5 mM glucose + 10% FBS, 1.71 µM
[20] = RPMI 5 mM glucose + 10% FBS, 5.12 µM
[21] = RPMI 5 mM glucose + 10% FBS, 15.4 µM
[22] = RPMI 5 mM glucose + 10% FBS, 46.1 µM
[23] = RPMI 5 mM glucose + 10% dialyzed FBS, 0.000781 µM
[24] = RPMI 5 mM glucose + 10% dialyzed FBS, 0.00234 µM
[25] = RPMI 5 mM glucose + 10% dialyzed FBS, 0.00702 µM
[26] = RPMI 5 mM glucose + 10% dialyzed FBS, 0.0211 µM
[27] = RPMI 5 mM glucose + 10% dialyzed FBS, 0.0632 µM
[28] = RPMI 5 mM glucose + 10% dialyzed FBS, 0.19 µM
[29] = RPMI 5 mM glucose + 10% dialyzed FBS, 0.569 µM
[30] = RPMI 5 mM glucose + 10% dialyzed FBS, 1.71 µM
[31] = RPMI 5 mM glucose + 10% dialyzed FBS, 5.12 µM
[32] = RPMI 5 mM glucose + 10% dialyzed FBS, 15.4 µM
[33] = RPMI 5 mM glucose + 10% dialyzed FBS, 46.1 µM

SMILES	cell viability [1] [%]	cell viability [2] [%]	cell viability [3] [%]	cell viability [4] [%]	cell viability [5] [%]	cell viability [6] [%]	cell viability [7] [%]	cell viability [8] [%]	cell viability [9] [%]	cell viability [10] [%]	cell viability [11] [%]	cell viability [12] [%]	cell viability [13] [%]	cell viability [14] [%]	cell viability [15] [%]	cell viability [16] [%]	cell viability [17] [%]	cell viability [18] [%]	cell viability [19] [%]	cell viability [20] [%]	cell viability [21] [%]	cell viability [22] [%]	cell viability [23] [%]	cell viability [24] [%]	cell viability [25] [%]	cell viability [26] [%]	cell viability [27] [%]	cell viability [28] [%]	cell viability [29] [%]	cell viability [30] [%]	cell viability [31] [%]	cell viability [32] [%]	cell viability [33] [%]
CCOc1ccc(Cc2cc([C@@H]3O[C@H](CO)[C@@H](O)[C@H](O)[C@H]3O)ccc2Cl)cc1	123	124	120	84.8	125	134	129	123	127	126	123																						
CC1(C)C(N(O)C(=O)Nc2ccc(Cl)cc2)N(c2ccc(Cl)cc2)C(=O)N1CC(=O)N/N=C/C=C/c1ccc([N+](=O)[O-])o1 (centres undefined)	112	109	111	113	115	104	105	103	99.4	103	65.6	108	105	105	110	113	107	110	106	102	100	52.4	115	104	115	111	109	113	104	103	103	91.3	49
Cc1onc(-c2ccccc2)c1C(=O)N[C@@H]1C(=O)N2[C@@H]1SC(C)(C)[C@@H]2C(=O)[O-].[Na+]	109	116	120	108	116	113	113	104	86.4	81.3	77.2	114	117	111	111	130	122	112	85.3	71	71.8	68.2	104	112	131	139	123	100	92.7	89.6	75.9	62.4	67.8
CC(C)(O)/C=C\C(=O)[C@](C)(O)[C@H]1[C@H](O)C[C@]2(C)[C@@H]3CC=C4[C@@H](C=C(O)C(=O)C4(C)C)[C@]3(C)C(=O)C[C@@]12C	94.8	106	103	99.6	99.7	50.9	15.1	18.4	21.6	12.9	4.2	113	105	111	107	97.9	47.3	12.4	15.1	17.1	6.22	2.85	93.9	98.5	93.9	104	102	43.8	14.6	17.9	20.9	6.49	3.06
OCc1ccc(-c2ccc(-c3ccc(CO)s3)o2)s1	116	116	106	116	101	105	102	106	98	97.8	87.3												118	123	130	125	118	109	104	95.4	96.3	91	78.6
COc1cc(/C=C/C(=O)O)ccc1O	89.1	93	91.4	104	95.7	102	107	99	103	106	107	90.9	88.5	91.9	84.4	88.5	92	99.4	88.4	79.1	97.1	101	88.1	89.8	88.7	94.1	91.5	91.1	96.3	93.5	91.1	94.1	99
COc1ncc(-c2ccc3c(Nc4cc(Oc5cc(F)cc(F)c5)cc(C(=O)O)c4)c([S+](=O)([O-])NC4CC4)cnc3c2)c(OC)n1	94.1	95.9	92.3	91.9	91.5	94.2	93.3	91.7	87.9	78.6	82.3	84	87.8	88.1	93.1	97.9	84.2	82.2	83.1	79.6	75.3	76.5	91.1	43	87.7	89.4	92.7	91	91.3	88.4	84.6	82.8	81.8
Nc1ncnc2c1c(-c1cccc(OCc3ccccc3)c1)cn2C1CC(CN2CCCC2)C1 (centres undefined)	116	128	120	130	134	128	133	124	134	121	62.4																						
